Here are results for five molecules from ChEMBL document CHEMBL5036303, “Cyclic Analogues of the Chemerin C-Terminus Mimic a Loop Conformation Essential for Activating the Chemokine-like Receptor 1” (J Med Chem, 2021).

Molecules are shown by their SMILES. Where a SMILES comes first, the peptide text is derived from it. A value given as a limit tells only on which side of the number the result lay.

The target in assay [1] is T1, Chemerin-like receptor 1 (Homo sapiens, UniProt Q99788).
T1 sequence (Q99788 whole entry): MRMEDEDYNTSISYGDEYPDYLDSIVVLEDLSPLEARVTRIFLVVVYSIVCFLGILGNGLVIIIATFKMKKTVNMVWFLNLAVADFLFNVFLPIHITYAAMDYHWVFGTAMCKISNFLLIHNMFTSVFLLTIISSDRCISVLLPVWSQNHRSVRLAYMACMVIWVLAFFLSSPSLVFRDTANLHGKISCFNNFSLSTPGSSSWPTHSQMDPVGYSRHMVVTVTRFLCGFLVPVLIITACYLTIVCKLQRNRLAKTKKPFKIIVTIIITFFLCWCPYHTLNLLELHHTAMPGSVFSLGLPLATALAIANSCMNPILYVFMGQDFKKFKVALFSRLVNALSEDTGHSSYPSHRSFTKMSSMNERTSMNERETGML
As to the kind of experiment: Agonist activity at wild type CMKL1 (unknown origin) expressed in COS-7 cells assessed as increase in calcium flux measured for 40 sec by Fluo-2 AM dye based assay. It is filed as functional, cell-based.

Assay [2] can be described thus: Agonist activity at CMKL1 Y268L mutant (unknown origin) expressed in COS-7 cells assessed as increase in calcium flux measured for 40 sec by Fluo-2 AM dye based assay. It is filed as cell-based.
Assay [3] addresses T1, Chemerin-like receptor 1. As to the kind of experiment: Agonist activity at Wild type CMKL1 (unknown origin) expressed in COS-7 cells assessed as accumulation of inositol phosphate incubated for 3 hrs by liquid scintillation counting method. The assay is classed as functional, cell-based.
The nature of assay [4]: Agonist activity at CMKL1 Y263A mutant (unknown origin) expressed in COS-7 cells assessed as increase in calcium flux measured for 40 sec by Fluo-2 AM dye based assay. It is filed as cell-based.
Assay [5] is described as follows: Agonist activity at CMKL1 Y268A mutant (unknown origin) expressed in COS-7 cells assessed as increase in calcium flux measured for 40 sec by Fluo-2 AM dye based assay. It is filed as cell-based.
The nature of assay [6]: Agonist activity at CMKL1 F476A mutant (unknown origin) expressed in COS-7 cells assessed as increase in calcium flux measured for 40 sec by Fluo-2 AM dye based assay. It is filed as cell-based.
Assay [7] in a line: Agonist activity at CMKL1 F479A mutant (unknown origin) expressed in COS-7 cells assessed as increase in calcium flux measured for 40 sec by Fluo-2 AM dye based assay. The assay is classed as cell-based.
A short description of assay [8]: Agonist activity at CMKL1 E658A mutant (unknown origin) expressed in COS-7 cells assessed as increase in calcium flux measured for 40 sec by Fluo-2 AM dye based assay. It is filed as cell-based.
The nature of assay [9]: Agonist activity at CMKL1 F476A mutant (unknown origin) expressed in COS-7 cells assessed as accumulation of inositol phosphate incubated for 3 hrs by liquid scintillation counting method. It is filed as cell-based. Particulars: COS-7, 3 h.
Assay [10] in a line: Agonist activity at CMKL1 F479A mutant (unknown origin) expressed in COS-7 cells assessed as accumulation of inositol phosphate incubated for 3 hrs by liquid scintillation counting method. It is filed as cell-based. As to conditions: COS-7, 3 h.
Assay [11] is described as follows: Agonist activity at CMKL1 E658A mutant (unknown origin) expressed in COS-7 cells assessed as accumulation of inositol phosphate incubated for 3 hrs by liquid scintillation counting method. The assay is classed as cell-based. As to conditions: COS-7, 3 h.

On to `C[C@H](NC(=O)[C@H](Cc1ccccc1)NC(=O)[C@H](CCC(N)=O)NC(=O)CNC(=O)[C@@H]1CCCN1C(=O)[C@H](Cc1ccccc1)NC(=O)[C@@H](N)Cc1ccc(O)cc1)C(=O)N[C@@H](Cc1ccccc1)C(=O)O` (H-YFPGQFAF-OH), for which the EC50 at Chemerin-like receptor 1 [1] came out at 20 nM.
Consider `CC(C)C[C@H](NC(=O)[C@H](CCC(N)=O)NC(=O)CNC(=O)[C@@H]1CCCN1C(=O)[C@H](Cc1ccccc1)NC(=O)[C@@H](N)Cc1ccc(O)cc1)C(=O)N[C@@H](C)C(=O)N[C@@H](Cc1ccccc1)C(=O)N[C@@H](CO)C(=O)O`, for which the EC50 at Chemerin-like receptor 1 [1] is 195 nM; in [2] (read-out: EC50), over 1000 nM; in assay [2] (read-out: pEC50 (converted)) it was over 1000 nM.
As to `C[C@H](NC(=O)[C@H](Cc1ccccc1)NC(=O)[C@H](CCC(N)=O)NC(=O)CNC(=O)[C@@H]1CCCN1C(=O)[C@H](Cc1ccccc1)NC(=O)[C@@H](N)Cc1ccc(O)cc1)C(=O)NCc1ccccc1`, the EC50 on Chemerin-like receptor 1 [1] is 32 nM.
For the molecule `C[C@@H]1NC(=O)[C@H](Cc2ccccc2)NC(=O)[C@H](CCC(N)=O)NC(=O)[C@@H](NC(=O)[C@@H]2CCCN2C(=O)[C@H](Cc2ccccc2)NC(=O)[C@@H](N)Cc2ccc(O)cc2)CSSC[C@@H](C(=O)O)NC(=O)[C@H](Cc2ccccc2)NC1=O` (HELM PEPTIDE1{Y.F.P.C.Q.F.A.F.C}$PEPTIDE1,PEPTIDE1,4:R3-9:R3$$$V2.0), the EC50 stood at 64 nM at Chemerin-like receptor 1 [1] and 150 nM on Chemerin-like receptor 1 [3].
Turning to `C[C@@H]1NC(=O)[C@H](Cc2ccccc2)NC(=O)[C@H](CCC(N)=O)NC(=O)[C@H](NC(=O)[C@@H]2CCCN2C(=O)[C@H](Cc2ccccc2)NC(=O)[C@@H](N)Cc2ccc(O)cc2)CCSSC[C@@H](C(=O)O)NC(=O)[C@H](Cc2ccccc2)NC1=O` (HELM PEPTIDE1{Y.F.P.[O=C([C@@H](CCS[*:3])N[*:1])[*:2]].Q.F.A.F.C}$PEPTIDE1,PEPTIDE1,4:R3-9:R3$$$V2.0), the EC50 in [4] (read-out: EC50) is 197 nM; in assay [4] (read-out: pEC50 (converted)), 200 nM; in assay [5] (read-out: EC50) it was over 1000 nM; in assay [5] (read-out: pEC50 (converted)) it was over 1000 nM; in assay [6] (read-out: EC50), 85 nM; in assay [6] (read-out: pEC50 (converted)) it was 85.1 nM. For the same molecule, the EC50 in [7] (read-out: EC50) is over 1000 nM; in assay [7] (read-out: pEC50 (converted)) it was over 1000 nM; in [8] (read-out: EC50), over 1000 nM; in assay [8] (read-out: pEC50 (converted)), over 1000 nM; in [9] it was 3890 nM; in [10], over 10000 nM. The EC50 in assay [11] (read-out: EC50) and in [11] (read-out: pEC50 (converted)) was over 10000 nM throughout.
